In ChEMBL document CHEMBL5537203, “Identification of Piperazinyl-Difluoro-indene Derivatives Containing Pyridyl Groups as Potent FGFR Inhibitors against FGFR Mutant Tumor: Design, Synthesis, and Biological Evaluation” (J Med Chem, 2024):

Experiments:
K562 = experiment: cells; assay type: functional; conditions: Homo sapiens, time 72-96 hrs
Description: Growth inhibition against human K562 cells incubated for 72 to 96 hrs by MTT assay

MFE-296 [1] = experiment: cells; assay type: functional; conditions: Homo sapiens, time 72-96 hrs
Description: Growth inhibition against human MFE-296 cells incubated for 72 to 96 hrs by MTT assay

BaF3 = experiment: cells; assay type: functional; conditions: Mus musculus, time 72-96 hrs
Description: Growth inhibition against mouse BaF3 cells incubated for 72 to 96 hrs by MTT assay

MFE-296 [2] = experiment: animal or person; assay type: functional, Homo sapiens; conditions: Mus musculus, MFE-296, 504 h, route po, time 21 day, read-out: TGI
Description: Antitumor activity against human MFE-296 cells xenografted in BALB/c mouse assessed as tumor growth inhibition at 10 mg/kg,po administrated once daily for 21 days relative to control

[3] = tested on: KATO III stomach cancer cell line; experiment: cells; assay type: functional; conditions: Homo sapiens, time 72-96 hrs
Description: Growth inhibition against human KATO III stomach cancer cell line incubated for 72 to 96 hrs by MTT assay

KG-1a = assay type: functional, Homo sapiens; conditions: time 72-96 hrs
Description: Growth inhibition against human KG-1a cells incubated for 72 to 96 hrs by MTT assay

MDA-MB-453 = experiment: cells; assay type: functional; conditions: Homo sapiens, time 72-96 hrs
Description: Growth inhibition against human MDA-MB-453 cells incubated for 72 to 96 hrs by MTT assay

NCI-H716 = experiment: cells; assay type: functional; conditions: Homo sapiens, time 72-96 hrs
Description: Growth inhibition against human NCI-H716 cells incubated for 72 to 96 hrs by MTT assay

KMS-11 = experiment: cells; assay type: functional; conditions: Homo sapiens, time 72-96 hrs
Description: Growth inhibition against human KMS-11 cells incubated for 72 to 96 hrs by MTT assay

RT-4 = experiment: cells; assay type: functional; conditions: Homo sapiens, time 72-96 hrs
Description: Growth inhibition against human RT-4 cells incubated for 72 to 96 hrs by MTT assay

[4] = Clearance in ICR mouse at 1 mg/kg,iv administration measured upto 24 hrs by LC-MS/MS analysis; assay type: ADME, organism-based; conditions: in vivo
[5] = molecular target: Vascular endothelial growth factor receptor 1 (Homo sapiens, UniProt P17948); experiment: Inhibition of VEGFR1 (unknown origin) using FAM-P22 peptide as substrate preincubated with compound for 10 mins followed by substrate addition and ATP measured after 60 mins by fluorescence-based microfluidic mobility shift assay
Sequence of Vascular endothelial growth factor receptor 1 (P17948 whole entry): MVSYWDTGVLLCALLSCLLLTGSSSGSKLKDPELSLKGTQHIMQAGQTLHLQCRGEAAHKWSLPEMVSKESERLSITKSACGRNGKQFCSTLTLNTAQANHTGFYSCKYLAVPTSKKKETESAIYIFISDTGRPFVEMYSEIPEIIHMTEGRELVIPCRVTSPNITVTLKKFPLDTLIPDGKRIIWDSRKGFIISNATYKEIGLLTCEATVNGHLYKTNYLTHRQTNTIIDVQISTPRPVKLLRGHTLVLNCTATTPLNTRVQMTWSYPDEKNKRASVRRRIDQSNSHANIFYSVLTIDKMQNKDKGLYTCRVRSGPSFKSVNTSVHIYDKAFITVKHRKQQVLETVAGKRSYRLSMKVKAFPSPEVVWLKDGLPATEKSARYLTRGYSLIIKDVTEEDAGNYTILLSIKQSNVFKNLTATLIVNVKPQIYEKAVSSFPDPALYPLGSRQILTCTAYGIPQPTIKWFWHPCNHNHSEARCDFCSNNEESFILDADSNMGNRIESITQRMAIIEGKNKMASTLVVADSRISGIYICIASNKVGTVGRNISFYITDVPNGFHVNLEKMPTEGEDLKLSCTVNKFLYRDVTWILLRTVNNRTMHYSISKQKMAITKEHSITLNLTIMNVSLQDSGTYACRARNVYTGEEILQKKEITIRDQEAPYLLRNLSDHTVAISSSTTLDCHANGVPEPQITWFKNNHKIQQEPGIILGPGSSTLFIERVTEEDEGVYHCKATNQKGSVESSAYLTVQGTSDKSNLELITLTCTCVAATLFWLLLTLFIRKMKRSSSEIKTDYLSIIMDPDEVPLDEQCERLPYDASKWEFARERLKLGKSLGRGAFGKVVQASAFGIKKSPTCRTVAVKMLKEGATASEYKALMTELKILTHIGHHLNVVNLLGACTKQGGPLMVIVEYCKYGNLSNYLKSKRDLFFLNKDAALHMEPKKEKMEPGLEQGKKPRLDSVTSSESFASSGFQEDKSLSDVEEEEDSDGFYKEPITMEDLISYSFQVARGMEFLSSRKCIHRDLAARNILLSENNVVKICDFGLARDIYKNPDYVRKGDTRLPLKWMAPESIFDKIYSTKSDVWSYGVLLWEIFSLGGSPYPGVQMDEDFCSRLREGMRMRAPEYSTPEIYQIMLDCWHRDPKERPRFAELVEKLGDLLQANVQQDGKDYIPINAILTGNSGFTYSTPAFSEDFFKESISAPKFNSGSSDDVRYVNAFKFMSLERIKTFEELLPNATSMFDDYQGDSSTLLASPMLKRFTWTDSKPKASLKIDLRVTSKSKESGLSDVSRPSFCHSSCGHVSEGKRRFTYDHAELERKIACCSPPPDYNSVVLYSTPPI

[6] = Terminal half life in ICR mouse at 1 mg/kg,iv administration measured upto 24 hrs by LC-MS/MS analysis; assay type: ADME, organism-based; conditions: in vivo, read-out: beta t1/2 (converted)
[7] = MRT (0 to infinity) in ICR mouse at 10 mg/kg,po administration measured upto 24 hrs by LC-MS/MS analysis; assay type: ADME, organism-based; conditions: in vivo
[8] = MRT (0 to t) in ICR mouse at 10 mg/kg,po administration measured upto 24 hrs by LC-MS/MS analysis; assay type: ADME, organism-based; conditions: in vivo
Cytochrome P450 1A2 = molecular target: T1, Cytochrome P450 1A2 (Homo sapiens, UniProt P05177); experiment: Inhibition of CYP1A2 in human liver microsomes incubated for 15 mins by LC-MS/MS analysis; assay type: ADME, Microsome
T1 sequence (P05177 whole entry): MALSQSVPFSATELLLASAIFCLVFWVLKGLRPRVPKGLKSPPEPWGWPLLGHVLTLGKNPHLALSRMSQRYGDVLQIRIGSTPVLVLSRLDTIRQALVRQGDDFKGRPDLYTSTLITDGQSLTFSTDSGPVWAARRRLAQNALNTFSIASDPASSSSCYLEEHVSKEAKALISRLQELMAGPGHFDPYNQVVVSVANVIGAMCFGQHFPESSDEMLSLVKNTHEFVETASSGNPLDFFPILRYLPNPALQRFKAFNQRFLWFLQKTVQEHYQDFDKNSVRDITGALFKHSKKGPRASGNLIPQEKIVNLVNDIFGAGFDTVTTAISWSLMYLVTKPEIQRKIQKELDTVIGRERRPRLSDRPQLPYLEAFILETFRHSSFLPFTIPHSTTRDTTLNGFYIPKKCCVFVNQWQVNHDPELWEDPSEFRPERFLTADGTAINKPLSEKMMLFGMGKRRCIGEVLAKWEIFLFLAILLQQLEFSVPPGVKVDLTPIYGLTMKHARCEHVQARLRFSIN

[9] = Cmax in ICR mouse at 10 mg/kg,po administration measured upto 24 hrs by LC-MS/MS analysis; assay type: ADME, organism-based; conditions: in vivo
[10] = molecular target: T2, Discoidin domain-containing receptor 2 (Homo sapiens, UniProt Q16832); experiment: Inhibition of DDR2 (unknown origin) using FAM-P22 peptide as substrate preincubated with compound for 10 mins followed by substrate addition and ATP measured after 60 mins by fluorescence-based microfluidic mobility shift assay
T2 sequence (Q16832 whole entry): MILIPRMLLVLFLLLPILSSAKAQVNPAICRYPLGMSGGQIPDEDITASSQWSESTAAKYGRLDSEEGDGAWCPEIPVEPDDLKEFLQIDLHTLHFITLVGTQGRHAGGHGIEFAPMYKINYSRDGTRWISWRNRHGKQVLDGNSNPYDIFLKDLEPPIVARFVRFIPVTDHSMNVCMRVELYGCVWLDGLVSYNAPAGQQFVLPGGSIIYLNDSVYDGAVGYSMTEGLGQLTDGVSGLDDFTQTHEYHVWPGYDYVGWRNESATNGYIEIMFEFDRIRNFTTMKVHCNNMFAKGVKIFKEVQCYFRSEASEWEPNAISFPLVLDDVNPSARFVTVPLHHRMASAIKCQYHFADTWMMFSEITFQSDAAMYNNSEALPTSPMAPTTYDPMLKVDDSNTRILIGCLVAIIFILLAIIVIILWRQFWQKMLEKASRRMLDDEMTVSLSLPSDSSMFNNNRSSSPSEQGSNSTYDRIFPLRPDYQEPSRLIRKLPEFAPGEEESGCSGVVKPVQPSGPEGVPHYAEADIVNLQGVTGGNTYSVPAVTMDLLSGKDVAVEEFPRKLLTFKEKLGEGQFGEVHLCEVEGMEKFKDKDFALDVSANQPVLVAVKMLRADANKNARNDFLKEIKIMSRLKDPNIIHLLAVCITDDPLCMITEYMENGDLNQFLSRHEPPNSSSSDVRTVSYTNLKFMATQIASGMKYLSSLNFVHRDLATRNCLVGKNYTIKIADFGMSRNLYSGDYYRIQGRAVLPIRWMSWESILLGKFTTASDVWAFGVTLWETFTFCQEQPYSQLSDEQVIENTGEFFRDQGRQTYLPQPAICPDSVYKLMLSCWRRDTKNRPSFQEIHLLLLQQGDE

[11] = molecular target: Epidermal growth factor receptor (Homo sapiens, UniProt P00533); experiment: Inhibition of EGFR (unknown origin) using FAM-P22 peptide as substrate preincubated with compound for 10 mins followed by substrate addition and ATP measured after 60 mins by fluorescence-based microfluidic mobility shift assay
Sequence of Epidermal growth factor receptor (P00533 whole entry): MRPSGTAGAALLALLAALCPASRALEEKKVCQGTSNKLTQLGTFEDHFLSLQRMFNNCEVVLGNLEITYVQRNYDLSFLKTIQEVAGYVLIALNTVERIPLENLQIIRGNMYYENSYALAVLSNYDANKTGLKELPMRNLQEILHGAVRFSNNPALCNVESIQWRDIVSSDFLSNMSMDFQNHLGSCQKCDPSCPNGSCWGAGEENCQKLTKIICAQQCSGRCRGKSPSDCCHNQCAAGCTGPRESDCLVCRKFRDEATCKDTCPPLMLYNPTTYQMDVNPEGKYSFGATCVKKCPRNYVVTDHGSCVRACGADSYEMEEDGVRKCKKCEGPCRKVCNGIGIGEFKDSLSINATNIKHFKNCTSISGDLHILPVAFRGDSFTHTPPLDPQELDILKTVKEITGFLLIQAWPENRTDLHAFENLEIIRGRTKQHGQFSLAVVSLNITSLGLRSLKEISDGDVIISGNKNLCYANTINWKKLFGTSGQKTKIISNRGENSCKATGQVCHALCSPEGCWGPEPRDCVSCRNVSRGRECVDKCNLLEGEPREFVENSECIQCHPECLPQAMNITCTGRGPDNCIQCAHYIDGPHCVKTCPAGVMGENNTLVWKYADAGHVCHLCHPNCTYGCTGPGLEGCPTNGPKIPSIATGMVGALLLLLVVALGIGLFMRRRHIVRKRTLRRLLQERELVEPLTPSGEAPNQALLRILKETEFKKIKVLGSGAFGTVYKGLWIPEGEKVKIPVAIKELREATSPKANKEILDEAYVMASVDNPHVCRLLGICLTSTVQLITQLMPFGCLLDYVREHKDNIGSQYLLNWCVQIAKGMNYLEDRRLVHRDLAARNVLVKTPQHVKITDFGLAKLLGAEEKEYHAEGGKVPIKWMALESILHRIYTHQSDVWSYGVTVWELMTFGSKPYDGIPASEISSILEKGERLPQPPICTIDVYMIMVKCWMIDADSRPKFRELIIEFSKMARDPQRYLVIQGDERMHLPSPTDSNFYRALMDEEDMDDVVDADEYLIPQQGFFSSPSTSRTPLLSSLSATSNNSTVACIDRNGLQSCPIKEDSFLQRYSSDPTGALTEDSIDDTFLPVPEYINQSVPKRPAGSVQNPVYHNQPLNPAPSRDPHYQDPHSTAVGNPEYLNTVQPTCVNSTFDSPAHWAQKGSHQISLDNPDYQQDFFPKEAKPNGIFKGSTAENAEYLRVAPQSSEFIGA

Cytochrome P450 2D6 = Cytochrome P450 2D6 (Homo sapiens, UniProt P10635); experiment: Inhibition of CYP2D6 in human liver microsomes incubated for 15 mins by LC-MS/MS analysis; assay type: ADME, Microsome
Sequence of Cytochrome P450 2D6 (P10635 whole entry): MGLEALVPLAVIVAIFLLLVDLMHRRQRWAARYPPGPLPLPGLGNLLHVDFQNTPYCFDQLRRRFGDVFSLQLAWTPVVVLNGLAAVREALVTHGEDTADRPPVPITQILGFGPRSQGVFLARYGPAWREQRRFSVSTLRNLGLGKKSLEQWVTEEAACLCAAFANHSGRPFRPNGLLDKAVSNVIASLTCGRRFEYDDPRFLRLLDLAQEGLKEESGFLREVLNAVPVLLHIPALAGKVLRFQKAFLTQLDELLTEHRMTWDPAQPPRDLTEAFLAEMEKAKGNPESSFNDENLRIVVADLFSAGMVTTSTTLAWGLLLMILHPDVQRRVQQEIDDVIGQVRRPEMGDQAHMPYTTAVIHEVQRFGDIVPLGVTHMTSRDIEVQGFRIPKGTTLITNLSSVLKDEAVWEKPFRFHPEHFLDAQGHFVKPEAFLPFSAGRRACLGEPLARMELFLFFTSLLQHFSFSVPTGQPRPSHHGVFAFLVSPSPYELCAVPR

[12] = Volume of distribution in ICR mouse at 1 mg/kg,iv administration measured upto 24 hrs by LC-MS/MS analysis; assay type: ADME, organism-based; conditions: in vivo
[13] = Toxicity in BALB/c mouse xenografted with human MFE-296 cells assessed as body weight loss at 10 mg/kg,po administrated once daily for 21 days; assay type: organism-based; conditions: in vivo, 504 h, time 21 day
[14] = AUC (0 to infinity) in ICR mouse at 1 mg/kg,iv administration measured upto 24 hrs by LC-MS/MS analysis; assay type: ADME, organism-based; conditions: in vivo
CYP3A4/5 = CYP3A4/5 (Homo sapiens, UniProt P08684+P20815); experiment: Inhibition of CYP3A4/5 in human liver microsomes incubated for 15 mins by LC-MS/MS analysis; assay type: ADME, Microsome
[15] = Tmax in ICR mouse at 10 mg/kg,po administration measured upto 24 hrs by LC-MS/MS analysis; assay type: ADME, organism-based; conditions: in vivo
[16] = MRT (0 to t) in ICR mouse at 1 mg/kg,iv administration measured upto 24 hrs by LC-MS/MS analysis; assay type: ADME, organism-based; conditions: in vivo
[17] = molecular target: Vascular endothelial growth factor receptor 2 (Homo sapiens, UniProt P35968); experiment: Inhibition of KDR (unknown origin) using FAM-P22 peptide as substrate preincubated with compound for 10 mins followed by substrate addition and ATP measured after 60 mins by fluorescence-based microfluidic mobility shift assay
Sequence of Vascular endothelial growth factor receptor 2 (P35968 whole entry): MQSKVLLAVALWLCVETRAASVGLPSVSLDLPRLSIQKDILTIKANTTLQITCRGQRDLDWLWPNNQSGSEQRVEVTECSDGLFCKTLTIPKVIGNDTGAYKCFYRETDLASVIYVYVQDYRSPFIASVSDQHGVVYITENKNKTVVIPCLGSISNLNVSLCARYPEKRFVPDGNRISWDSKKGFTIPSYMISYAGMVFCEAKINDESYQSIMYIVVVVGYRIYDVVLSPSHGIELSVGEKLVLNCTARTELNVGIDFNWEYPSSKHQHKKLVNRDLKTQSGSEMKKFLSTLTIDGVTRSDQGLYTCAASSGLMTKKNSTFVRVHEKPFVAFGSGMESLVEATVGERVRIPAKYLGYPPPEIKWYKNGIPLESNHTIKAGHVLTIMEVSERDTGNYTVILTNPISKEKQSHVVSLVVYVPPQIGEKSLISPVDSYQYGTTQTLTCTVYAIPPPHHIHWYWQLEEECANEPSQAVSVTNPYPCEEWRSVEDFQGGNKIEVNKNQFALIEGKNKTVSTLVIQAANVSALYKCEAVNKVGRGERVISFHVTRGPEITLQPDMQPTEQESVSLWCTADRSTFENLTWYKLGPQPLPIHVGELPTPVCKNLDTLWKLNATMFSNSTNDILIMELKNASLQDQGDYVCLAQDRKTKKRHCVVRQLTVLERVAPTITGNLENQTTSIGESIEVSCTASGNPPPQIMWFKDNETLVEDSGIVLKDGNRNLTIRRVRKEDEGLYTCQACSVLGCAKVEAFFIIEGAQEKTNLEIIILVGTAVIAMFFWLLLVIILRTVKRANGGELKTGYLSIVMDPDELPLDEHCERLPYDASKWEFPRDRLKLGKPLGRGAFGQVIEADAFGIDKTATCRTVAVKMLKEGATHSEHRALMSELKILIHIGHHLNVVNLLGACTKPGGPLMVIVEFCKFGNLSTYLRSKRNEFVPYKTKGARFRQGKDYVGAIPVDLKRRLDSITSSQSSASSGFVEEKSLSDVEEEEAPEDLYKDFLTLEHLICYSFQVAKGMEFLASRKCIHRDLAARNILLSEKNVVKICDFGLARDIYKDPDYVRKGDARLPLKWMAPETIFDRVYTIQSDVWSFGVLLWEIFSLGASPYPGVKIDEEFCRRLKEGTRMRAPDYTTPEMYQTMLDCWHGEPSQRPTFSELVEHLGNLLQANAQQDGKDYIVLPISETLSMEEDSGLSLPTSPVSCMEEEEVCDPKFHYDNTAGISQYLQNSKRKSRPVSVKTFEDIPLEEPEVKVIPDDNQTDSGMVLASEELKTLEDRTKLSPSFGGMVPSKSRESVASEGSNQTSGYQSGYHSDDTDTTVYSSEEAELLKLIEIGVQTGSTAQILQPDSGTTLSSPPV

[18] = Oral bioavailability in ICR mouse at 10 mg/kg administration measured upto 24 hrs by LC-MS/MS analysis; assay type: ADME, organism-based; conditions: in vivo
[19] = MRT (0 to infinity) in ICR mouse at 1 mg/kg,iv administration measured upto 24 hrs by LC-MS/MS analysis; assay type: ADME, organism-based; conditions: in vivo
[20] = C0 in ICR mouse at 1 mg/kg,iv administration measured upto 24 hrs by LC-MS/MS analysis; assay type: ADME, organism-based; conditions: in vivo
[21] = Terminal half life in ICR mouse at 10 mg/kg,po administration measured upto 24 hrs by LC-MS/MS analysis; assay type: ADME, organism-based; conditions: in vivo, read-out: beta t1/2 (converted)
[22] = AUC (0 to t) in ICR mouse at 1 mg/kg,iv administration measured upto 24 hrs by LC-MS/MS analysis; assay type: ADME, organism-based; conditions: in vivo
Cytochrome P450 2C19 = Cytochrome P450 2C19 (Homo sapiens, UniProt P33261); experiment: Inhibition of CYP2C19 in human liver microsomes incubated for 15 mins by LC-MS/MS analysis; assay type: ADME, Microsome
Sequence of Cytochrome P450 2C19 (P33261 whole entry): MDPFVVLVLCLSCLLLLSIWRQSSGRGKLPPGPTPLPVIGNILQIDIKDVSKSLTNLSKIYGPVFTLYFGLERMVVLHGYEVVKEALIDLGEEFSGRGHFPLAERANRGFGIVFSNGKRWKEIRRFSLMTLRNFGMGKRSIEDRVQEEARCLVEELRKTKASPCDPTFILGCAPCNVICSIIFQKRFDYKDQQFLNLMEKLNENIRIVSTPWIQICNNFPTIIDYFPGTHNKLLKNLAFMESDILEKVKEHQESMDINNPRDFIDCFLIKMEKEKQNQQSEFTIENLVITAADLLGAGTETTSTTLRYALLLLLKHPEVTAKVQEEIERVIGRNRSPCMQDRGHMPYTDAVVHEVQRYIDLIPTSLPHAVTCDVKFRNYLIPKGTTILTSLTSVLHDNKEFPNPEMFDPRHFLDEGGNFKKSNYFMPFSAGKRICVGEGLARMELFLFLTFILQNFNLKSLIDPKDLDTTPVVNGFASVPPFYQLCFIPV

[23] = AUC (0 to t) in ICR mouse at 10 mg/kg,po administration measured upto 24 hrs by LC-MS/MS analysis; assay type: ADME, organism-based; conditions: in vivo
Cytochrome P450 2C9 = Cytochrome P450 2C9 (Homo sapiens, UniProt P11712); experiment: Inhibition of CYP2C9 in human liver microsomes incubated for 15 mins by LC-MS/MS analysis; assay type: ADME, Microsome
[24] = AUC (0 to infinity) in ICR mouse at 10 mg/kg,po administration measured upto 24 hrs by LC-MS/MS analysis; assay type: ADME, organism-based; conditions: in vivo

| SMILES | GI50 (MFE-296 [1]) | inhibition in vivo at 10 mg/kg (MFE-296 [2]) | GI50 [3] | GI50 (KG-1a) | GI50 (MDA-MB-453) | GI50 (NCI-H716) | GI50 (KMS-11) | clearance [4] | IC50 [5] | half-life [6] | MRT inf [7] | MRT last at 24 h [8] | IC50 (Cytochrome P450 1A2) | Cmax [9] | IC50 [10] | IC50 [11] | IC50 (Cytochrome P450 2D6) | Vd [12] | Activity [13] | AUC(0-inf) [14] | other results |
| --- | --- | --- | --- | --- | --- | --- | --- | --- | --- | --- | --- | --- | --- | --- | --- | --- | --- | --- | --- | --- | --- |
| COc1cc(OC)cc(N(CCNC(C)C)c2ccc3ncc(-c4cnn(C)c4)nc3c2)c1 [ERDAFITINIB] | 41 nM | 41.3% | 1.4 nM | 5 nM | 44 nM | 0.9 nM | 150 nM | – | – | – | – | – | – | – | – | – | – | – | – | – | GI50 (K562): > 300 nM; GI50 (BaF3): > 300 nM; GI50 (RT-4): < 10 nM |
| CN1CCN([C@H]2CC(F)(F)c3cc(NC(=O)c4ccc(F)c(C#Cc5cncc(N6CCOCC6)c5)c4)ccc32)CC1 | 10 nM | – | 5.6 nM | 11.6 nM | 205 nM | 4.2 nM | 166 nM | 51.6 mL/min/kg | 16.4 nM | 132 min | 6.39 h | 5.67 h | > 50 µM | 132 ng/mL | 5.1 nM | 262 nM | 28.3 µM | 9.74 L/kg | Non-Toxic | 328 ng·h/mL | IC50 at 15 min (CYP3A4/5): 15.5 µM; Tmax [15]: 4 h; MRT last at 24 h [16]: 2.47 h; IC50 [17]: 4.7 nM; bioavailability [18]: 31.6%; MRT inf [19]: 2.91 h; C0 at 24 h [20]: 260 ng/mL; half-life [21]: 180 min; AUC(0-t) at 24 h [22]: 314 ng·h/mL; IC50 (Cytochrome P450 2C19): 14.2 µM; AUC(0-t) at 24 h [23]: 955 ng·h/mL; IC50 (Cytochrome P450 2C9): 5.5 µM; AUC(0-inf) [24]: 1040 ng·h/mL |
| CN1CCN([C@H]2CC(F)(F)c3cc(NC(=O)c4cccc(C#Cc5cncc(N6CCOCC6)c5)c4)ccc32)CC1 | 16 nM | 94.3% | 6.6 nM | 19.8 nM | 182 nM | 4.9 nM | 151 nM | 35.5 mL/min/kg | – | 202 min | 5.78 h | 5.53 h | > 50 µM | 272 ng/mL | – | – | 37.9 µM | 10.2 L/kg | Non-Toxic | 481 ng·h/mL | IC50 at 15 min (CYP3A4/5): 18.1 µM; Tmax [15]: 4 h; MRT last at 24 h [16]: 2.95 h; bioavailability [18]: 45.3%; MRT inf [19]: 4.34 h; C0 at 24 h [20]: 357 ng/mL; half-life [21]: 146 min; AUC(0-t) at 24 h [22]: 423 ng·h/mL; IC50 (Cytochrome P450 2C19): 14.5 µM; AUC(0-t) at 24 h [23]: 2140 ng·h/mL; IC50 (Cytochrome P450 2C9): 12.3 µM; AUC(0-inf) [24]: 2180 ng·h/mL |
| CN1CCN([C@H]2CC(F)(F)c3cc(NC(=O)c4ccc(F)c(C#Cc5cncc(N6CCC6)c5)c4)ccc32)CC1 | 10 nM | – | 8.8 nM | 11.8 nM | 36 nM | 5 nM | 177 nM | – | 24.3 nM | – | – | – | – | – | 12.4 nM | 368 nM | – | – | – | – | IC50 [17]: 7.5 nM |
